Experimental data reported in the NIST ThermoML archive (doi:10.1021/je0495785).
± gives the expanded uncertainty stated by the source.

Columns and labels:
[1] = molar enthalpy of vaporization or sublimation; conditions: Liquid, DSC
[2] = for Normal melting temperature: Crystal, DTA; for Normal boiling temperature: Liquid, not specified, probably DSC
[3] = molar heat capacity at constant pressure; conditions: 101.33 kPa, Small sample (50 mg) DSC
[4] = Molar enthalpy of transition or fusion; conditions: Crystal; DSC

Structure (SMILES): Cc1cccc(N(c2cccc(C)c2)c2cccc(C)c2)c1 [3-methyl-N,N-bis(3-methylphenyl)benzenamine]
- molar enthalpy ([1]; 567.99 K): 8.98 ± 0.956 kcal/mol
- Normal melting temperature [2]: 39.81 ± 2 °C
- Normal boiling temperature [2]: 294.84 ± 100 °C
- molar heat capacity at constant pressure ([3]; 240 K, Crystal): 1455.4 ± 150 J/K/mol
- molar heat capacity at constant pressure ([3]; 245 K, Crystal): 1383 ± 140 J/K/mol
- molar heat capacity at constant pressure ([3]; 250 K, Crystal): 1322.8 ± 130 J/K/mol
- molar heat capacity at constant pressure ([3]; 255 K, Crystal): 1274.6 ± 130 J/K/mol
- molar heat capacity at constant pressure ([3]; 260 K, Crystal): 1238.6 ± 130 J/K/mol
- molar heat capacity at constant pressure ([3]; 265 K, Crystal): 1214.8 ± 120 J/K/mol
- molar heat capacity at constant pressure ([3]; 270 K, Crystal): 1203 ± 120 J/K/mol
- molar heat capacity at constant pressure ([3]; 275 K, Crystal): 1203.4 ± 120 J/K/mol
- molar heat capacity at constant pressure ([3]; 280 K, Crystal): 1216 ± 120 J/K/mol
- molar heat capacity at constant pressure ([3]; 285 K, Crystal): 1240.6 ± 130 J/K/mol
- molar heat capacity at constant pressure ([3]; 290 K, Crystal): 1277.4 ± 130 J/K/mol
- molar heat capacity at constant pressure ([3]; 295 K, Crystal): 1326.3 ± 130 J/K/mol
- molar heat capacity at constant pressure ([3]; 300 K, Crystal): 1387.4 ± 140 J/K/mol
- molar heat capacity at constant pressure ([3]; 306 K, Crystal): 1476.7 ± 150 J/K/mol
- molar heat capacity at constant pressure ([3]; 336 K, Liquid): 1250.8 ± 130 J/K/mol
- molar heat capacity at constant pressure ([3]; 341 K, Liquid): 1249.7 ± 130 J/K/mol
- molar heat capacity at constant pressure ([3]; 346 K, Liquid): 1249.5 ± 130 J/K/mol
- molar heat capacity at constant pressure ([3]; 351 K, Liquid): 1250.1 ± 130 J/K/mol
- molar heat capacity at constant pressure ([3]; 356 K, Liquid): 1251.5 ± 130 J/K/mol
- molar heat capacity at constant pressure ([3]; 361 K, Liquid): 1253.8 ± 130 J/K/mol
- molar heat capacity at constant pressure ([3]; 366 K, Liquid): 1257 ± 130 J/K/mol
- molar heat capacity at constant pressure ([3]; 371 K, Liquid): 1261 ± 130 J/K/mol
- molar heat capacity at constant pressure ([3]; 376 K, Liquid): 1265.8 ± 130 J/K/mol
- molar heat capacity at constant pressure ([3]; 381 K, Liquid): 1271.5 ± 130 J/K/mol
- Molar enthalpy of transition or fusion [4]: 3.12 ± 0.311 kcal/mol

Structure (SMILES): Cc1ccc(N(c2ccc(C)cc2)c2cccc(C)c2)cc1 [3-methyl-N,N-bis(4-methylphenyl)benzenamine]
- molar enthalpy ([1]; 589.09 K): 18.1 ± 3.82 kcal/mol
- Normal melting temperature [2]: 56.70 ± 2 °C
- Normal boiling temperature [2]: 315.94 ± 100 °C
- molar heat capacity at constant pressure ([3]; 298 K, Crystal): 417.01 ± 42 J/K/mol
- molar heat capacity at constant pressure ([3]; 303 K, Crystal): 369.25 ± 37 J/K/mol
- molar heat capacity at constant pressure ([3]; 308 K, Crystal): 351.52 ± 35 J/K/mol
- molar heat capacity at constant pressure ([3]; 313 K, Crystal): 363.76 ± 37 J/K/mol
- molar heat capacity at constant pressure ([3]; 318 K, Crystal): 406.01 ± 41 J/K/mol
- molar heat capacity at constant pressure ([3]; 323 K, Crystal): 478.26 ± 48 J/K/mol
- molar heat capacity at constant pressure ([3]; 325 K, Crystal): 515.56 ± 52 J/K/mol
- molar heat capacity at constant pressure ([3]; 339 K, Liquid): 442.71 ± 45 J/K/mol
- molar heat capacity at constant pressure ([3]; 343 K, Liquid): 440.93 ± 45 J/K/mol
- molar heat capacity at constant pressure ([3]; 348 K, Liquid): 438.63 ± 44 J/K/mol
- molar heat capacity at constant pressure ([3]; 353 K, Liquid): 436.24 ± 44 J/K/mol
- molar heat capacity at constant pressure ([3]; 358 K, Liquid): 433.8 ± 44 J/K/mol
- molar heat capacity at constant pressure ([3]; 363 K, Liquid): 431.3 ± 44 J/K/mol
- molar heat capacity at constant pressure ([3]; 368 K, Liquid): 428.71 ± 43 J/K/mol
- molar heat capacity at constant pressure ([3]; 373 K, Liquid): 426.07 ± 43 J/K/mol
- molar heat capacity at constant pressure ([3]; 378 K, Liquid): 423.34 ± 43 J/K/mol
- molar heat capacity at constant pressure ([3]; 383 K, Liquid): 420.55 ± 42 J/K/mol
- molar heat capacity at constant pressure ([3]; 388 K, Liquid): 417.68 ± 42 J/K/mol
- molar heat capacity at constant pressure ([3]; 393 K, Liquid): 414.74 ± 42 J/K/mol
- Molar enthalpy of transition or fusion [4]: 5.19 ± 0.526 kcal/mol

Structure (SMILES): Cc1ccc(N(c2cccc(C)c2)c2cccc(C)c2)cc1 [3-methyl-N-(3-methylphenyl)-N-(4-methylphenyl)benzenamine]
- molar enthalpy ([1]; 547.3 K): 16.6 ± 3.59 kcal/mol
- Normal melting temperature [2]: 89.50 ± 2 °C
- Normal boiling temperature [2]: 274.1 ± 100 °C
- molar heat capacity at constant pressure ([3]; 330 K, Crystal): 114.18 ± 12 J/K/mol
- molar heat capacity at constant pressure ([3]; 335 K, Crystal): 117.34 ± 12 J/K/mol
- molar heat capacity at constant pressure ([3]; 340 K, Crystal): 98.12 ± 9.9 J/K/mol
- molar heat capacity at constant pressure ([3]; 365 K, Liquid): 143.7 ± 15 J/K/mol
- molar heat capacity at constant pressure ([3]; 369 K, Liquid): 141.06 ± 14 J/K/mol
- molar heat capacity at constant pressure ([3]; 372 K, Liquid): 137.86 ± 14 J/K/mol
- Molar enthalpy of transition or fusion [4]: 6.31 ± 0.645 kcal/mol

Structure (SMILES): Cc1ccc(N(c2ccc(C)cc2)c2ccc(C)cc2)cc1 [tri-tolylamine]
- molar enthalpy ([1]; 574.04 K): 17.3 ± 3.82 kcal/mol
- Normal melting temperature [2]: 115.59 ± 2 °C
- Normal boiling temperature [2]: 300.89 ± 100 °C
- Molar enthalpy of transition or fusion [4]: 4.77 ± 0.478 kcal/mol
